According to article PMC12549899 (Nature Communications, 2025):
Where “and” joins values, the source holds several entries; their conditions need not be identical. Equal values may be shown once.

Biological target: T1, DrOTOP1 M133W (Danio rerio, UniProt Q7ZWK8, M133W)
T1 construct: A previously generated codon-optimized full-length DrOTOP1[8]; (UniProt: Q7ZWK8) construct; expressed in transfected cells; host or cells: HEK-293 (CRL-1573, ATCC)
T1 sequence (Q7ZWK8 1-586 M133W): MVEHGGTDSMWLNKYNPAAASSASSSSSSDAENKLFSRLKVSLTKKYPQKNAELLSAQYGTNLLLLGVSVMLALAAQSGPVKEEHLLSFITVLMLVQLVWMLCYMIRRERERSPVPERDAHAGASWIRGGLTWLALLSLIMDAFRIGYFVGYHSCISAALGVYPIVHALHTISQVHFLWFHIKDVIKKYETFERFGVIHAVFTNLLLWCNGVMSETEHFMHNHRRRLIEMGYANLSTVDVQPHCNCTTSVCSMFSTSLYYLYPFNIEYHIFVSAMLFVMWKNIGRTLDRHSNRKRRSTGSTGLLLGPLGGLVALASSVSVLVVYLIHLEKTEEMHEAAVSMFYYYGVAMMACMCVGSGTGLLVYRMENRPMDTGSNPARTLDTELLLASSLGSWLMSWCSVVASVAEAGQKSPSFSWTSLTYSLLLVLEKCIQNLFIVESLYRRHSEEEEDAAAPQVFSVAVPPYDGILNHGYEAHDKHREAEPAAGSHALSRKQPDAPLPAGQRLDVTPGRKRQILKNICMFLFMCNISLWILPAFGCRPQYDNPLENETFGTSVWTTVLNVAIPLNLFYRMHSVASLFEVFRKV
Assay: Whole-cell patch-clamp, inhibition of acid-evoked currents, DrOTOP1 M133W
Assay type: cell-based, zebrafish (Danio rerio)
Text: To functionally test the significance of the two binding sites identified by cryo-EM, we generated point mutations of DrOTOP1 using the binding poses and conformational changes observed in DrOTOP1_C2.2 to guide our mutations. As per the binding pose that best fits our cryo-EM density, C2.2 forms the following interactions in the outer site: hydrophobic packing against many non-polar residues W126, G130, M133, L134, F271, F570, and M573, and π-stacking with W532 (Fig. 5A). In addition, C2.2 could potentially form H-bonds with E267, if the sidechain is protonated or a water bridge is present, and with H574 if it moves closer (Fig. 5A). Likewise, C2.36 presents a heterocyclic nitrogen that can potentially form a H-bond with E267, similarly, provided a protonation or water bridge is present (Fig. 5B). In addition, C2.36 forms a T-shaped π-stacking interaction with H574, whose sidechain has rotated 90 degrees (compared to DrOTOP1_apo), presumably to accommodate the interaction (Fig. 5B). Considering other inhibitors discovered from the second round of screening, many contain functional groups like the carbonyl groups of Group 1 molecules and the heterocyclic nitrogen atoms of Group 2 molecules (Supplementary Fig. 3E), that can potentially form similar H-bonds with E267 as C2.2 and C2.36, assuming the binding modes are similar. In the central site, C2.2 binds with the following interactions: hydrophobic packing with residues V201, F271, A274, V278, and A388, π-stacking with F277, and H-bonding with E384 (Fig. 5C).
Each non-aromatic residue was mutated to tryptophan, which was expected to cause steric occlusion. […]
Whole-cell patch-clamp recording was performed as previously described[6],[22],[25]. Recordings were made with an Axopatch 200B amplifier, digitized with a Digidata 1322a 16-bit data acquisition system, acquired with pClamp 8.2 and analyzed with Clampfit 10 (Molecular Devices). […]

SMILES | Inhibition of currents (10 µM, single cells or mean, mean) [%] | Inhibition of currents (10 µM, single cells or mean, single cells) | Inhibition of currents (100 µM, single cells)
C=C(C)COc1ccccc1NC(=O)c1nc[nH]c1C [C2.2] | 71.39 | 74.2591% and 52.599% and 79.1509% and 79.3522% and 71.5803% | –
O=C(/C(=N\O)c1ccccc1)c1ccccc1 [C11, benzil monoxime] | – | – | 51.1084% and 50.3496% and 47.6418% and 59.4138% and 72.1088%
